These are literature values, as cited in patent US20060135599A1, “Use for pharmaceutical composition” (GW Pharma Limited, priority 2002, published 2006).

In data set [1] the test system is spasticity. The note with it: oral, nine patients.
Data set [2] deals with spasticity. The following applies: oral, 13 patients.

On to `CCCCCc1cc(O)c2c(c1)OC(C)(C)[C@@H]1CCC(C)=C[C@@H]21` [oral THC, Δ^9 tetrahydrocannabinol], for which the “spasticity compared with placebo” value in data set [1] is “statistically significant reduction”. Moreover, in data set [2], the “subjective improvements in spasticity” value is “significant subjective improvements”.
